The record followed here is patent US9085576B2 (AMGEN INC., priority 2013, dated 2015).

Assay [1] addresses Beta Secretase enzyme (BACE) (Homo sapiens (Human), UniProt P56817). The assay is described as follows: In vitro enzymatic BACE FRET assay. Particulars: read-out: BACE1 Enzyme assay IC50. It is filed as biochemical.
For the next assay, the target named is Cathepsin D (Cat D) (Homo sapiens (Human), UniProt P07339). Nature of the assay: In vitro enzymatic Cathepsin D (Cat D) FRET assay. It is filed as biochemical. To be noted: read-out: CatD IC50.
Chain of Cathepsin D (Cat D) (P07339 65-412, species assumed): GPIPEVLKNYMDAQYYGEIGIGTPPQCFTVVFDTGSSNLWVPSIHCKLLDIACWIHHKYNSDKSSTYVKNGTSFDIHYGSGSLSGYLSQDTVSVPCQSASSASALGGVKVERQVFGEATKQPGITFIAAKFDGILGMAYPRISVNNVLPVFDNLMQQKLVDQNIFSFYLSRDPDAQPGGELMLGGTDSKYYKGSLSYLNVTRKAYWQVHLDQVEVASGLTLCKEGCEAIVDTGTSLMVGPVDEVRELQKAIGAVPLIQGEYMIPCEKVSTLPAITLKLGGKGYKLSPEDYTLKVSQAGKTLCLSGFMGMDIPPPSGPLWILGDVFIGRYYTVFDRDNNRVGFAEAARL
A further assay deals with BACE (Homo sapiens (Human), UniProt P56817). Nature of the assay: In vitro BACE cell-based assay (Aβ40 in conditioned medium, sandwich ELISA).
Chain of BACE (P56817 46-501, species assumed): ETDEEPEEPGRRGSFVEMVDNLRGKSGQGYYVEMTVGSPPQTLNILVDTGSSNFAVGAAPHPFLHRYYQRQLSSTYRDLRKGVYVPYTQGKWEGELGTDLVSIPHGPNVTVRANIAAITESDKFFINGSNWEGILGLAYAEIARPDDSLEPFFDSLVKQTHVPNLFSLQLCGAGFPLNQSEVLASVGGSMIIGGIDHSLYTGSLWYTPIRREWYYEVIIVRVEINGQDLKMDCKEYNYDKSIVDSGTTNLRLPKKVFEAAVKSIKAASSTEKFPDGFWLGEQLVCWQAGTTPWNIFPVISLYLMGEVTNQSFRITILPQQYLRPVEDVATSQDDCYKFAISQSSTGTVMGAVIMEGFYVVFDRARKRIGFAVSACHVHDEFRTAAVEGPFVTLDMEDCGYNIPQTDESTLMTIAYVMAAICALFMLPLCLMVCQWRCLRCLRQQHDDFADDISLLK

The structures appear in SMILES notation. Some results are limits rather than exact numbers.

Chain of Beta Secretase enzyme (BACE) (P56817 46-501): as the sequence (P56817 46-501, species assumed) above
Description for Cathepsin D (Cat D): In Vitro Enzymatic Cathepsin D (Cat D) FRET (Fluorescence Resonance Energy Transfer) Assay
Recombinant Cat D was expressed in CHO cells. The assay buffer for CathepsinD is 0.05 M citrate pH 3.5, 10% DMSO final, 5 mM CHAPS. […] The assays are effectively started by the addition of different FRET substrates (20 nM for Cat D) and the combination is incubated for one hour. The FRET assay is terminated with by addition of Tris buffer, which raises the pH to neutrality, and the fluorescence is determined. […] Proteolytic cleavage of the FRET substrate releases quenching of fluorescence (Cat D excitation 500 nm and emission 580 nm).

`NC1=N[C@@](c2cc(NC(=O)c3cnc(OCC4CCOCC4)cn3)ccc2F)(C(F)F)[C@H]2C[C@H]2O1` [Example 412, N-(3-((1R,5S,6R)-3-amino-5-(difluoromethyl)-2-oxa-4-azabicyclo[4.1.0]hept-3-en-5-yl)-4-fluorophenyl)-5-((tetrahydro-2H-pyran-4-yl)methoxy)pyrazine-2-carboxamide]: the IC50 in assay [1] is 0.129 µM; at Cathepsin D (Cat D), 640 µM; against BACE it was 0.984 µM.

On to `C=CCOc1cnc(C(=O)Nc2ccc(F)c([C@@]3(C(F)F)N=C(N)O[C@@H]4C[C@@H]43)c2)cn1` [Example 414, 5-(allyloxy)-N-(3-((1R,5S,6R)-3-amino-5-(difluoromethyl)-2-oxa-4-azabicyclo[4.1.0]hept-3-en-5-yl)-4-fluorophenyl)pyrazine-2-carboxamide], for which the values for the IC50 (in assay [1]; at Cathepsin D (Cat D); at BACE) were 0.048 µM, 924 µM and 0.146 µM, respectively.

`NC1=N[C@@](c2cc(NC(=O)c3cnc(OCC4CCCCC4)cn3)ccc2F)(C(F)F)[C@H]2C[C@H]2O1` [Example 416, N-(3-((1R,5S,6R)-3-amino-5-(difluoromethyl)-2-oxa-4-azabicyclo[4.1.0]hept-3-en-5-yl)-4-fluorophenyl)-5-(cyclohexylmethoxy)pyrazine-2-carboxamide]: the values for the concentration for half-maximal inhibition (IC50) (in assay [1]; at Cathepsin D (Cat D); against BACE) were 0.0121 µM, 228 µM and 2.5 µM, respectively.

For `CCOc1cnc(C(=O)Nc2ccc(F)c([C@@]3(C(F)F)N=C(N)O[C@@H]4C[C@@H]43)c2)cn1` [Example 417, N-(3-((1R,5S,6R)-3-amino-5-(difluoromethyl)-2-oxa-4-azabicyclo[4.1.0]hept-3-en-5-yl)-4-fluorophenyl)-5-ethoxypyrazine-2-carboxamide], the IC50 in assay [1] is 0.115 µM; on Cathepsin D (Cat D), 1470 µM; against BACE it was 0.0876 µM.

Regarding `NC1=N[C@@](c2cc(NC(=O)c3cnc(OCC4CCCC4)cn3)ccc2F)(C(F)F)[C@H]2C[C@H]2O1` [Example 418, N-(3-((1R,5S,6R)-3-amino-5-(difluoromethyl)-2-oxa-4-azabicyclo[4.1.0]hept-3-en-5-yl)-4-fluorophenyl)-5-(cyclopentylmethoxy)pyrazine-2-carboxamide], the figures for the IC50 (in assay [1]; at Cathepsin D (Cat D); against BACE) were 0.0261 µM, 891 µM and 0.916 µM, respectively.

As for `NC1=N[C@@](c2cc(NS(=O)(=O)c3ccc(Cl)cn3)ccc2F)(C(F)F)[C@H]2C[C@H]2O1` [Example 421, N-(3-((1R,5S,6R)-3-amino-5-(difluoromethyl)-2-oxa-4-azabicyclo[4.1.0]hept-3-en-5-yl)-4-fluorophenyl)-5-chloropyridine-2-sulfonamide], the IC50 in assay [1] was 14.2 µM; on Cathepsin D (Cat D) it was 224 µM; at BACE, more than 15.6 µM.

As for `COC[C@H](C)NC(=O)c1ccc(F)c([C@]2(C(F)F)N=C(N)O[C@H]3C[C@H]32)c1` [Example 427, 3-((1S,5R,6S)-3-Amino-5-(difluoromethyl)-2-oxa-4-azabicyclo[4.1.0]hept-3-en-5-yl)-4-fluoro-N—((S)-1-methoxypropan-2-yl)benzamide], the results for the IC50 (in assay [1]; on Cathepsin D (Cat D); on BACE) were more than 40 µM, more than 400 µM and more than 15.6 µM, respectively.

As to `COC[C@H](C)NC(=O)c1ccc(F)c([C@@]2(C(F)F)N=C(N)O[C@@H]3C[C@@H]32)c1` [Example 428, 3-((1R,5S,6R)-3-Amino-5-(difluoromethyl)-2-oxa-4-azabicyclo[4.1.0]hept-3-en-5-yl)-4-fluoro-N—((S)-1-methoxypropan-2-yl)benzamide], the IC50 in assay [1] was more than 40 µM; on Cathepsin D (Cat D), 1520 µM; against BACE, more than 15.6 µM.

As to `CC#Cc1cncc(-c2ccc(F)c([C@@]3(C(F)F)N=C(N)O[C@@H]4C[C@@H]43)c2)c1` [Example 429, (1R,5S,6R)-5-(difluoromethyl)-5-(2-fluoro-5-(5-(prop-1-yn-1-yl)pyridin-3-yl)phenyl)-2-oxa-4-azabicyclo[4.1.0]hept-3-en-3-amine], the IC50 in assay [1] was found to be 1.05 µM; on Cathepsin D (Cat D), 72.9 µM; at BACE, 3.36 µM.

Regarding `CC#Cc1cncc(-c2ccc(F)c([C@]3(C(F)F)N=C(N)O[C@H]4C[C@H]43)c2)c1` [Example 430], the IC50 in assay [1] is more than 40 µM; at Cathepsin D (Cat D), 1020 µM; at BACE it was more than 15.6 µM.

Take `CC#Cc1cnn(-c2ccc(F)c([C@@]3(C(F)F)N=C(N)O[C@@H]4C[C@@H]43)c2)c1` [Example 434, (1R,5S,6R)-5-(difluoromethyl)-5-(2-fluoro-5-(4-(prop-1-yn-1-yl)-1H pyrazol-1-yl)phenyl)-2-oxa-4-azabicyclo[4.1.0]hept-3-en-3-amine]: the results for the IC50 (in assay [1]; at Cathepsin D (Cat D); at BACE) were 1.21 µM, 386 µM and 0.561 µM, respectively.

For `NC1=N[C@@](c2cc(N3Cc4cc(Cl)cnc4C3=O)ccc2F)(C(F)F)[C@H]2C[C@H]2O1` [Example 437, 6-(3-((1R,5S,6R)-3-amino-5-(difluoromethyl)-2-oxa-4-azabicyclo[4.1.0]hept-3-en-5-yl)-4-fluorophenyl)-3-chloro-5H-pyrrolo[3,4-b]pyridin-7(6H)-one], the IC50 stood at 2.19 µM in assay [1], 659 µM at Cathepsin D (Cat D) and 0.384 µM on BACE.

On to `COc1cnc(C(=O)Nc2cccc([C@@]3(C(F)F)N=C(N)O[C@@H]4C[C@@H]43)c2)cn1` [Example 438, N-(3-((1R,5S,6R)-3-amino-5-(difluoromethyl)-2-oxa-4-azabicyclo[4.1.0]hept-3-en-5-yl)phenyl)-5-methoxypyrazine-2-carboxamide], for which the figures for the IC50 (in assay [1]; at Cathepsin D (Cat D); on BACE) were 0.5 µM, 793 µM and 0.126 µM, respectively.

In the case of `NC1=N[C@@](c2cc(-c3nnc(-c4ccc(F)cc4)[nH]3)ccc2F)(C(F)F)[C@H]2C[C@H]2O1` [Example 440, (1R,5S,6R)-5-(difluoromethyl)-5-(2-fluoro-5-(5-(4-fluorophenyl)-4H-1,2,4-triazol-3-yl)phenyl)-2-oxa-4-azabicyclo[4.1.0]hept-3-en-3-amine], the IC50 was more than 40 µM in assay [1], 250 µM on Cathepsin D (Cat D) and more than 15.6 µM against BACE.

With `NC1=N[C@](CF)(c2cc(NC(=O)c3ncc(Cl)cc3CF)ccc2Cl)[C@H]2C[C@H]2O1` [Example 441, N-(3-((1R,5S,6R)-3-amino-5-(fluoromethyl)-2-oxa-4-azabicyclo[4.1.0]hept-3-en-5-yl)-4-chlorophenyl)-5-chloro-3-(fluoromethyl) picolinamide], the IC50 in assay [1] was found to be 0.0252 µM; at Cathepsin D (Cat D), 444 µM; against BACE it was 0.0159 µM.

As for `NC1=N[C@](CF)(c2cc(NC(=O)c3ncc(Cl)cc3F)ccc2Cl)[C@H]2C[C@H]2O1` [Example 442, N-(3-((1R,5S,6R)-3-amino-5-(fluoromethyl)-2-oxa-4-azabicyclo[4.1.0]hept-3-en-5-yl)-4-chlorophenyl)-5-chloro-3-fluoropicolinamide], the IC50 is 0.0544 µM in assay [1], 1140 µM on Cathepsin D (Cat D) and 0.0134 µM at BACE.

On to `Cc1cc(Cl)cnc1C(=O)Nc1ccc(Cl)c([C@@]2(CF)N=C(N)O[C@@H]3C[C@@H]32)c1` [Example 443, N-(3-((1R,5S,6R)-3-amino-5-(fluoromethyl)-2-oxa-4-azabicyclo[4.1.0]hept-3-en-5-yl)-4-chlorophenyl)-5-chloro-3-methylpicolinamide], for which the 50% inhibitory concentration (IC50) in assay [1] came out at 0.0373 µM; at Cathepsin D (Cat D), 517 µM; against BACE, 0.0136 µM.

Regarding `NC1=N[C@](CF)(c2cc(NC(=O)c3ccc(F)cn3)ccc2Cl)[C@H]2C[C@H]2O1` [Example 445, N-(3-((1R,5S,6R)-3-amino-5-(fluoromethyl)-2-oxa-4-azabicyclo[4.1.0]hept-3-en-5-yl)-4-chlorophenyl)-5-fluoropicolinamide], the IC50 in assay [1] stood at 0.29 µM; at Cathepsin D (Cat D) it was 1270 µM; at BACE it was 0.031 µM.

Turning to `N#Cc1cnc2c(Nc3ccc(F)c([C@@]4(C(F)F)N=C(N)O[C@@H]5C[C@@H]54)c3)nccc2c1` [Example 446, 8-((3-((1R,5S,6R)-3-amino-5-(difluoromethyl)-2-oxa-4-azabicyclo[4.1.0]hept-3-en-5-yl)-4-fluorophenyl)amino)-1,7-naphthyridine-3-carbonitrile], the IC50 came to 0.0558 µM in assay [1], 658 µM on Cathepsin D (Cat D) and 0.107 µM against BACE.

Take `COc1cnc2c(Nc3ccc(F)c([C@@]4(C(F)F)N=C(N)O[C@@H]5C[C@@H]54)c3)nccc2n1` [Example 447, (1R,5S,6R)-5-(difluoromethyl)-5-(2-fluoro-5-((2-methoxypyrido[3,4-b]pyrazin-5-yl)amino)phenyl)-2-oxa-4-azabicyclo[4.1.0]hept-3-en-3-amine]: the IC50 in assay [1] was 0.139 µM; on Cathepsin D (Cat D), 501 µM; against BACE, 0.167 µM.

Turning to `COc1cnc2c(Nc3ccc(F)c([C@@]4(C(F)F)N=C(N)O[C@@H]5C[C@@H]54)c3)ncc(F)c2c1` [Example 448, (1R,5S,6R)-5-(difluoromethyl)-5-(2-fluoro-5-((5-fluoro-3-methoxy-1,7-naphthyridin-8-yl)amino)phenyl)-2-oxa-4-azabicyclo[4.1.0]hept-3-en-3-amine], the IC50 in assay [1] is 0.117 µM; on Cathepsin D (Cat D) it was 169 µM; on BACE, 0.0863 µM.

In the case of `NC1=N[C@@](c2cc(Nc3ncnc4cc(C(F)(F)F)cnc34)ccc2F)(C(F)F)[C@H]2C[C@H]2O1` [Example 449, (1R,5S,6R)-5-(difluoromethyl)-5-(2-fluoro-5-((7-(trifluoromethyl)pyrido[3,2-d]pyrimidin-4-yl)amino)phenyl)-2-oxa-4-azabicyclo[4.1.0]hept-3-en-3-amine], the results for the IC50 (in assay [1]; on Cathepsin D (Cat D); at BACE) were 0.124 µM, 79.4 µM and 0.268 µM, respectively.

Turning to `N#Cc1cnc(C(=O)Nc2ccc(Cl)c([C@@]3(CF)N=C(N)O[C@@H]4C[C@@H]43)c2)c(F)c1` [Example 450, N-(3-((1R,5S,6R)-3-amino-5-(fluoromethyl)-2-oxa-4-azabicyclo[4.1.0]hept-3-en-5-yl)-4-chlorophenyl)-5-cyano-3-fluoropicolinamide], the IC50 is 0.0503 µM in assay [1], more than 400 µM on Cathepsin D (Cat D) and 0.00817 µM at BACE.

Usually IC50 stands for the concentration needed to halve the response being measured.
